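Cells were grown in 96-well plates and exposed to each compound for 48 hours at five concentrations; endpoints were interpolated linearly between bracketing concentrations, or set to the highest concentration if not reached. Abbreviation: GI50, concentration required for 50% inhibition of growth.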 Active and inactive are the calls of the source. No stated cut-off is given here; in the data, active = GI50 up to about 1.1 µM and inactive = higher.
Assays:
Assay in all cases: DTP human tumour cell line panel, 48 h
HL-60 = tested on: HL-60
NCI-H522 = tested on: NCI-H522
HOP-92 = tested on: HOP-92
SK-MEL-2 = tested on: SK-MEL-2
MOLT-4 = tested on: MOLT-4
OVCAR-4 = tested on: OVCAR-4
UACC-62 = tested on: UACC-62
NCI-H23 = tested on: NCI-H23
786-0 = tested on: 786-0
HCT-116 = tested on: HCT-116
EKVX = tested on: EKVX
HCC 2998 = tested on: HCC 2998
CAKI-1 = tested on: CAKI-1
SK-MEL-5 = tested on: SK-MEL-5
DMS-273 = tested on: DMS-273
SN12C = tested on: SN12C
SW-620 = tested on: SW-620
Hs-578T = tested on: Hs-578T
MCF7 = tested on: MCF7
NCI/ADR-RES = tested on: NCI/ADR-RES

Measured: GI50

Cc1c(CC/C(=N\Nc2ccc([N+](=O)[O-])cc2[N+](=O)[O-])c2ccccc2)c2ccccc2n1C
inactive: HL-60 > 50 µM | NCI-H522 > 100 µM | HOP-92 97.7 µM | SK-MEL-2 > 100 µM | MOLT-4 > 43.2 µM | OVCAR-4 > 100 µM | UACC-62 > 100 µM | NCI-H23 > 100 µM | 786-0 > 100 µM | HCT-116 > 100 µM | EKVX > 100 µM | HCC 2998 > 100 µM | CAKI-1 > 100 µM | SK-MEL-5 > 100 µM | DMS-273 > 100 µM | SN12C > 100 µM | SW-620 > 100 µM

COc1cc(/C=C2\CCc3ccccc3C2=O)cc(OC)c1OC
inactive: HL-60 10.7 µM | NCI-H522 14.8 µM | HOP-92 11.1 µM | SK-MEL-2 15.8 µM | MOLT-4 9.4 µM | OVCAR-4 23.9 µM | UACC-62 14.3 µM | NCI-H23 15.7 µM | 786-0 15.7 µM | HCT-116 14.1 µM | EKVX 17.9 µM | HCC 2998 18 µM | CAKI-1 16.1 µM | SK-MEL-5 12.6 µM | DMS-273 11.9 µM | SN12C 18 µM | SW-620 16.6 µM

COCC1N=C(c2cc(OC)c(OC)c(OC)c2-c2cc3c(cc2C2OCCCO2)OCO3)O[C@H]1c1ccccc1 (stereo partly specified)
inactive: HL-60 > 100 µM | NCI-H522 > 100 µM | HOP-92 > 100 µM | SK-MEL-2 > 100 µM | MOLT-4 > 100 µM | OVCAR-4 > 100 µM | UACC-62 > 100 µM | NCI-H23 > 100 µM | 786-0 > 100 µM | HCT-116 > 100 µM | EKVX > 100 µM | HCC 2998 > 100 µM | CAKI-1 79.4 µM | SK-MEL-5 > 100 µM | DMS-273 > 100 µM | SN12C > 100 µM | SW-620 > 100 µM

COc1ccc(N2C(=O)/C(=C/c3ccc(N(CCC#N)CCC#N)cc3C)N=C2c2cc([N+](=O)[O-])ccc2Cl)cc1
inactive: HL-60 3.62 µM | NCI-H522 2.74 µM | HOP-92 > 31.7 µM | SK-MEL-2 6.15 µM | Hs-578T 1.54 µM | MCF7 4.81 µM | MOLT-4 4.73 µM | OVCAR-4 > 46.5 µM | UACC-62 5.27 µM | NCI-H23 7.59 µM | 786-0 4.43 µM | HCT-116 3.94 µM | EKVX 14.5 µM | HCC 2998 4.68 µM | CAKI-1 7 µM | SK-MEL-5 5.43 µM | DMS-273 3.3 µM | NCI/ADR-RES > 10 µM | SN12C 6.31 µM | SW-620 4.55 µM

Reference: ChEMBL document CHEMBL1201862, “PubChem BioAssay data set” (2004)
